Source: patent publication US20240383852A1, “ANTI-VIRAL COMPOUNDS” (INFEX Therapeutics Limited, priority 2021, published 2024)
Where a name gives a salt, the structure may show the parent alone. Read-outs that look alike come from different tables or passages of the source.

What was measured:
[1] = tested on: human Hep G2 cells (ATCC HB-8065); experiment: Cytotoxicity in Hep G2 cells (CellTiter-Glo); type: cell-based
SARS-CoV-2 PLpro = target: T1, SARS-CoV-2 PLpro (Severe acute respiratory syndrome coronavirus 2, UniProt P0DTD1); experiment: biochemical
T1 construct: containing 60 nM papain-like protease

[2] = Hep G2 cells, 100 μM test article, 24-hour exposure
[3] = 60 nM papain-like protease, 50 μM Z-RLRGG-AMC, pH 7.5, 37° C., read-out: SARS-CoV-2 PLpro IC50

Row | SMILES | % Cell Viability [1, 2] [%] | IC50 (SARS-CoV-2 PLpro; [3]) [nM] | % Cell Viability ([1]; human, 24 h, 100 μM) [%] | IC50 (SARS-CoV-2 PLpro) [nM]
1 | COc1cc(-c2ccnn2C)cc([C@@H](C)NC(=O)c2cc(N3C[C@H]4C[C@@H]3CN4C)ccc2C)c1 [Example 248, N-[(1R)-1-[3-Methoxy-5-(2-methylpyrazol-3-yl)phenyl]ethyl]-2-methyl-5-[(1R,4R)-5-methyl-2,5-diazabicyclo[2.2.1]heptan-2-yl]benzamide] | 55.3 | < 2000 | – | –
2 | Cc1ccc(N2CCN(C)CC2)cc1C(=O)N[C@H](C)c1ccc(OCc2ccccc2)c(-c2cnn(C)c2)c1 [Example 249, N-[(1R)-1-[4-Benzyloxy-3-(1-methylpyrazol-4-yl)phenyl]ethyl]-2-methyl-5-(4-methylpiperazin-1-yl)benzamide] | 0.5 | < 2000 | – | –
3 | Cc1ccc(N2CCN(C)CC2)cc1C(=O)N[C@H](C)c1ccc(OC(C)C)c(-c2cnn(C)c2)c1 [Example 250, N-[(1R)-1-[4-isopropoxy-3-(1-methylpyrazol-4-yl)phenyl]ethyl]-2-methyl-5-(4-methylpiperazin-1-yl)benzamide] | 93.0 | < 2000 | – | –
4 | COc1cc(-c2cn(C)nc2C)cc([C@@H](C)NC(=O)c2cc(N3CC4CN(C)CC4C3)ccc2C)c1 (stereo partly drawn) [Example 254, N-[(1R)-1-[3-(1,3-Dimethylpyrazol-4-yl)-5-methoxy-phenyl]ethyl]-2-methyl-5-(2-methyl-1,3,3a,4,6,6a-hexahydropyrrolo[3,4-c]pyrrol-5-yl)benzamide] | 57.0 | < 2000 | – | –
5 | COc1cc(-c2cn(C)nc2C)cc([C@@H](C)NC(=O)c2cc(N3CCN(CC4CC4)CC3)ccc2C)c1 [Example 255, 5-[4-(Cyclopropylmethyl)piperazin-1-yl]-N-[(1R)-1-[3-(1,3-dimethylpyrazol-4-yl)-5-methoxy-phenyl]ethyl]-2-methyl-benzamide hydrochloride salt] | 70.3 | < 2000 | – | –
6 | COc1cc(-c2cn(C)nc2C)cc([C@@H](C)NC(=O)c2cc(N3CCN4CCCC4C3)ccc2C)c1 (stereo partly drawn) [Example 256, 5-(3,4,6,7,8,8a-Hexahydro-1H-pyrrolo[1,2-a]pyrazin-2-yl)-N-[(1R)-1-[3-(1,3-dimethylpyrazol-4-yl)-5-methoxy-phenyl]ethyl]-2-methyl-benzamide] | 70.1 | < 2000 | – | –
7 | COc1ccc([C@@H](C)NC(=O)c2cc(N3CC4(CCNCC4)C3)ccc2C)cc1-c1cnn(C)c1 [Example 258, 5-(2,7-Diazaspiro[3.5]nonan-2-yl)-N-[(1R)-1-[4-methoxy-3-(1-methylpyrazol-4-yl)phenyl]ethyl]-2-methyl-benzamide] | 81.8 | < 2000 | – | –
8 | COc1ccc([C@@H](C)NC(=O)c2cc(N3CCC4(CC3)CNC4)ccc2C)cc1-c1cnn(C)c1 [Example 259, 5-(2,7-Diazaspiro[3.5]nonan-7-yl)-N-[(1R)-1-[4-methoxy-3-(1-methylpyrazol-4-yl)phenyl]ethyl]-2-methyl-benzamide] | 111.1 | < 2000 | – | –
9 | COc1cc(-c2cnn(C)c2)cc([C@@H](C)NC(=O)c2cc(N3CC4CNCC4C3)ccc2C)c1 (stereo partly drawn) [Example 262, 5-(2,3,3a,4,6,6a-Hexahydro-1H-pyrrolo[3,4-c]pyrrol-5-yl)-N-[(1R)-1-[3-methoxy-5-(1-methylpyrazol-4-yl)phenyl]ethyl]-2-methyl-benzamide] | 42.4 | < 2000 | – | –
10 | COc1cc(-c2cnn(C)c2)cc([C@@H](C)NC(=O)c2cc(N3CCCNCC3)ccc2C)c1 [Example 263, 5-(1,4-Diazepan-1-yl)-N-[(1R)-1-[3-methoxy-5-(1-methylpyrazol-4-yl)phenyl]ethyl]-2-methyl-benzamide] | 56.4 | < 2000 | – | –
11 | COc1cc(-c2cnn(C)c2)cc([C@@H](C)NC(=O)c2cc(N3CCNC4(CC4)C3)ccc2C)c1 [Example 264, 5-(4,7-Diazaspiro[2.5]octan-7-yl)-N-[(1R)-1-[3-methoxy-5-(1-methylpyrazol-4-yl)phenyl]ethyl]-2-methyl-benzamide] | 68.5 | < 2000 | – | –
12 | COc1cc(-c2cn(C)nc2C)cc([C@@H](C)NC(=O)c2cc(N3CCCNCC3)ccc2C)c1 [Example 265, 5-(1,4-Diazepan-1-yl)-N-[(1R)-1-[3-(1,3-dimethylpyrazol-4-yl)-5-methoxy-phenyl]ethyl]-2-methyl-benzamide] | 40.7 | < 2000 | – | –
13 | COc1cc(-c2cn(C)nc2C)cc([C@@H](C)NC(=O)c2cc(N3CCNC4(CC4)C3)ccc2C)c1 [Example 267, 5-(4,7-Diazaspiro[2.5]octan-7-yl)-N-[(1R)-1-[3-(1,3-dimethylpyrazol-4-yl)-5-methoxy-phenyl]ethyl]-2-methyl-benzamide] | 81.0 | < 2000 | – | –
14 | COc1cc(-c2cn(C)nc2C)cc([C@@H](C)NC(=O)c2cc(N3CC4CNCC4C3)ccc2C)c1 (stereo partly drawn) [Example 268, 5-(2,3,3a,4,6,6a-Hexahydro-1H-pyrrolo[3,4-c]pyrrol-5-yl)-N-[(1R)-1-[3-(1,3-dimethylpyrazol-4-yl)-5-methoxy-phenyl]ethyl]-2-methyl-benzamide] | 75.0 | < 2000 | – | –
15 | COc1cc(-c2cn(C)nc2C)cc([C@@H](C)NC(=O)c2cc(N3C[C@H]4CC[C@@H](C3)N4)ccc2C)c1 [Example 270, 5-[(1S,5R)-3,8-Diazabicyclo[3.2.1]octan-3-yl]-N-[(1R)-1-[3-(1,3-dimethylpyrazol-4-yl)-5-methoxy-phenyl]ethyl]-2-methyl-benzamide] | – | – | 22.6 | < 2000
16 | COc1ccc([C@@H](C)NC(=O)c2cc(N3CC4(CNC4)C3)ccc2C)cc1-c1cnn(C)c1 [Example 271, 5-(2,6-Diazaspiro[3.3]heptan-2-yl)-N-[(1R)-1-[4-methoxy-3-(1-methylpyrazol-4-yl)phenyl]ethyl]-2-methyl-benzamide] | 95.2 | < 5000 | – | –
17 | COc1ccc([C@@H](C)NC(=O)c2cc(N3CCN(CCO)CC3)ccc2C)cc1-c1cnn(C)c1 [Example 273, 5-[4-(2-Hydroxyethyl)piperazin-1-yl]-N-[(1R)-1-[4-methoxy-3-(1-methylpyrazol-4-yl)phenyl]ethyl]-2-methyl-benzamide] | 92.6 | < 5000 | – | –
18 | COc1cc(-c2cnn(C)c2)cc([C@@H](C)NC(=O)c2cc(N3C[C@H]4CC[C@@H](C3)N4CC3CC3)ccc2C)c1 [Example 274, 5-[(1R,5S)-8-(Cyclopropylmethyl)-3,8-diazabicyclo[3.2.1]octan-3-yl]-N-[(1R)-1-[3-methoxy-5-(1-methylpyrazol-4-yl)phenyl]ethyl]-2-methyl-benzamide] | – | – | 38.7 | < 2000
19 | Cc1ccc(N2CCN(C)CC2)cc1C(=O)N[C@H](C)c1cc(O)cc(-c2cnn(C)c2)c1 [Example 275, N-[(1R)-1-[3-Hydroxy-5-(1-methylpyrazol-4-yl)phenyl]ethyl]-2-methyl-5-(4-methylpiperazin-1-yl)benzamide] | 80.7 | < 2000 | – | –
20 | Cc1ccc(N2CCN(C)CC2)cc1C(=O)N[C@H](C)c1ccc(O)c(-c2cnn(C)c2)c1 [Example 276, N-[(1R)-1-[4-Hydroxy-3-(1-methylpyrazol-4-yl)phenyl]ethyl]-2-methyl-5-(4-methylpiperazin-1-yl)benzamide] | 81.6 | < 2000 | – | –
21 | Cc1ccc(N2CCN(C)CC2)cc1C(=O)N[C@H](C)c1ccc(OCCO)c(-c2cnn(C)c2)c1 [Example 282, N-[(1R)-1-[4-(2-Hydroxyethoxy)-3-(1-methylpyrazol-4-yl)phenyl]ethyl]-2-methyl-5-(4-methylpiperazin-1-yl)benzamide] | 100.0 | < 2000 | – | –
22 | COc1ccc([C@@H](C)NC(=O)c2cc(N3CCN(C)CC3)ccc2C)cc1-c1cnn(CCO)c1 [Example 284, N-[(1R)-1-[3-[1-(2-Hydroxyethyl)pyrazol-4-yl]-4-methoxy-phenyl]ethyl]-2-methyl-5-(4-methylpiperazin-1-yl)benzamide] | 101.3 | < 2000 | – | –
23 | COc1ccc([C@@H](C)NC(=O)c2cc(N3CCN(C)CC3)ccc2C)cc1-c1csc(C(=O)N(C)C)c1 [Example 285, 4-[2-Methoxy-5-[(1R)-1-[[2-methyl-5-(4-methylpiperazin-1-yl)benzoyl]amino]ethyl]phenyl]-N,N-dimethyl-thiophene-2-carboxamide] | 72.2 | < 2000 | – | –
24 | COc1ccc([C@@H](C)NC(=O)c2cc(N3C[C@H]4C[C@@H]3CN4C)ccc2C)cc1-c1csc(C(=O)N(C)C)c1 [Example 286, 4-[2-Methoxy-5-[(1R)-1-[[2-methyl-5-[(1R,4R)-5-methyl-2,5-diazabicyclo[2.2.1]heptan-2-yl]benzoyl]amino]ethyl]phenyl]-N,N-dimethyl-thiophene-2-carboxamide] | 50.3 | < 2000 | – | –
25 | COc1ccc([C@@H](C)NC(=O)c2cc(N3C[C@H]4C[C@@H]3CN4C)ccc2C)cc1-c1csc(C(=O)NC2CC2)c1 [Example 287, N-Cyclopropyl-4-[2-methoxy-5-[(1R)-1-[[2-methyl-5-[(1R,4R)-5-methyl-2,5-diazabicyclo[2.2.1]heptan-2-yl]benzoyl]amino]ethyl]phenyl]thiophene-2-carboxamide] | 43.4 | < 2000 | – | –
26 | CNC(=O)c1cc(-c2cc([C@@H](C)NC(=O)c3cc(N4CCN(C)CC4)ccc3C)ccc2OC)cs1 [Example 288, 4-[2-Methoxy-5-[(1R)-1-[[2-methyl-5-(4-methylpiperazin-1-yl)benzoyl]amino]ethyl]phenyl]-N-methyl-thiophene-2-carboxamide] | 47.2 | < 2000 | – | –
27 | COc1cc(-c2cc(C(=O)N(C)C)n(C)c2)cc([C@@H](C)NC(=O)c2cc(N3C[C@H]4C[C@@H]3CN4C)ccc2C)c1 [Example 290, 4-[3-Methoxy-5-[(1R)-1-[[2-methyl-5-[(1R,4R)-5-methyl-2,5-diazabicyclo[2.2.1]heptan-2-yl]benzoyl]amino]ethyl]phenyl]-N,N,1-trimethyl-pyrrole-2-carboxamide] | 72.9 | < 2000 | – | –
